Data taken from publication PMC3075238 (Bioorganic & medicinal chemistry letters, 2011).

Molecular target: T1, caspase-3 in HeLa cell (Homo sapiens, UniProt P42574)
T1 sequence (P42574 29-175 limits assumed): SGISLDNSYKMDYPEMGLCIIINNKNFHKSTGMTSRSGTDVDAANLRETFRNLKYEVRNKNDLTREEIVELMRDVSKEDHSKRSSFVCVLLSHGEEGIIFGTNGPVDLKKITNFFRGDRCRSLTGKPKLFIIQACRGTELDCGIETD
T1 sequence (P42574 176-277 limits assumed): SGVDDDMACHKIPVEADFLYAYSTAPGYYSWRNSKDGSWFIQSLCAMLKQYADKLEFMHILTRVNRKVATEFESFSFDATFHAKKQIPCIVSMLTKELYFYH
Assay: Apo-One Homogeneous Caspase-3/7 whole cell assay in HeLa cells

inhibition potency for caspase-3 in the whole cell assay (in words): very good inhibition potency
SMILES: O=C1C(=O)N(Cc2cn(CCF)nn2)c2ccc(S(=O)(=O)N3CCC[C@H]3COc3ccc(F)cc3F)cc21 [Compound 51]
